Residue numbers refer to the chain shown, from its start. Names may count otherwise. Where two headings read alike, the source gives them in different places.
What was measured:
[1] = target: HisVAC cephalosporin C acylase (Pseudomonas N176 derived, parent Seq. ID #1) variant A215F; experiment: Product inhibition of mutant A215F; assay type: biochemical
Description: (§1) Kinetics parameters of the mutants and HisVAC acylase were determined measuring the hydrolysis of cephalosporin C or glutaryl 7-ACA in 0.1 M phosphate buffer solution, pH 8.0 at 37° C. (then converted in units at 25° C.). The amount of 7-ACA is determined spectrophotometrically, using a standard curve, measuring the yellow intensity at 415 nm (Schiff base), resulting upon reaction with p-dimethylaminobenzaldehyde, using modified Bulasingham method (Biochem. Biophys. Acta 276, 250, 1972).

[2] = target: HisVAC cephalosporin C acylase (Pseudomonas N176 derived, parent Seq. ID #1) variant A215Y; experiment: Product inhibition of mutant A215Y; assay type: biochemical
Description: as §1

[3] = system: HisVAC cephalosporin C acylase (Pseudomonas N176 derived, parent Seq. ID #1) variant H296N; experiment: Hydrolysis kinetics of mutant H296N; assay type: biochemical; settings: for Km: 0.1 M phosphate; for Km / Vmax: pH 8.0, 37° C.; for Vmax: converted in units at 25° C.; for Inhibition after: substrate concentration after which inhibition occurs
Description: (§2) 1. Site-Directed Mutagenesis
as §1
(§3) One acylase unit is the amount of enzyme (in solution or immobilized) which, under the assay conditions, produces one micromole of 7-ACA/minute.

[4] = system: HisVAC cephalosporin C acylase (Pseudomonas N176 derived, parent Seq. ID #1) variant A215Y; experiment: Hydrolysis kinetics of mutant A215Y; assay type: biochemical; settings: for Km: 0.1 M phosphate; for Km / Vmax: pH 8.0, 37° C.; for Vmax: converted in units at 25° C.; for Inhibition after: substrate concentration after which inhibition occurs
Description: as §2, §1, §3

[5] = system: HisVAC cephalosporin C acylase (Pseudomonas N176 derived, parent Seq. ID #1) variant A215F; experiment: Hydrolysis kinetics of mutant A215F; assay type: biochemical; settings: for Km: 0.1 M phosphate; for Km / Vmax: pH 8.0, 37° C.; for Vmax: converted in units at 25° C.
Description: as §2, §1, §3

[6] = system: HisVAC cephalosporin C acylase (Pseudomonas N176 derived, parent Seq. ID #1) variant A215E; experiment: Hydrolysis kinetics of mutant A215E; assay type: biochemical; settings: for Km: 0.1 M phosphate; for Km / Vmax: pH 8.0, 37° C.; for Vmax: converted in units at 25° C.
Description: as §2, §1, §3

[7] = system: HisVAC cephalosporin C acylase, wild-type (designed on Pseudomonas N176 acylase, Phe270, C-terminal LEHHHHHH), Seq. ID #1; experiment: Hydrolysis kinetics of wild-type HisVAC acylase; assay type: biochemical; settings: for Km: 0.1 M phosphate; for Km / Vmax: pH 8.0, 37° C.; for Vmax: converted in units at 25° C.; for Inhibition after: substrate concentration after which inhibition occurs
Description: Said sequence was introduced in order to make the subsequent chromatographic purification easier, using pET24 plasmid as the cloning and expression vector. This plasmid is resistant to kanamycin and is able to insert a “His-Tag sequence” at the C-terminus of the protein and a “T7-Tag sequence” at the N-terminus.
as §1, §3

[8] = system: HisVAC cephalosporin C acylase (Pseudomonas N176 derived, parent Seq. ID #1) variant H296S; experiment: Hydrolysis kinetics of mutant H296S; assay type: biochemical; settings: for Km: 0.1 M phosphate; for Km / Vmax: pH 8.0, 37° C.; for Vmax: converted in units at 25° C.; for Inhibition after: substrate concentration after which inhibition occurs
Description: as §2, §1, §3

[9] = system: HisVAC cephalosporin C acylase (Pseudomonas N176 derived, parent Seq. ID #1) variant A215L; experiment: Hydrolysis kinetics of mutant A215L; assay type: biochemical; settings: for Km: 0.1 M phosphate; for Km / Vmax: pH 8.0, 37° C.; for Vmax: converted in units at 25° C.; for Inhibition after: substrate concentration after which inhibition occurs
Description: as §2, §1, §3

[10] = system: HisVAC cephalosporin C acylase (Pseudomonas N176 derived, parent Seq. ID #1) variant A215V; experiment: Hydrolysis kinetics of mutant A215V; assay type: biochemical; settings: for Km: 0.1 M phosphate; for Km / Vmax: pH 8.0, 37° C.; for Vmax: converted in units at 25° C.; for Inhibition after: substrate concentration after which inhibition occurs
Description: as §2, §1, §3

[11] = system: HisVAC cephalosporin C acylase (Pseudomonas N176 derived, parent Seq. ID #1) variant H296T; experiment: Hydrolysis kinetics of mutant H296T; assay type: biochemical; settings: for Km: 0.1 M phosphate; for Km / Vmax: pH 8.0, 37° C.; for Vmax: converted in units at 25° C.; for Inhibition after: substrate concentration after which inhibition occurs
Description: as §2, §1, §3

[12] = Stability of the enzyme (pH, temperature); assay type: physicochemical; settings: temperatures higher than 25° C.
Description: Purified HisVAC is stable after 120 min incubation at pH ranging from 5 to 9. Enzymatic activity increases as a function of the pH of the reaction solution, in the range 5-10, reaching the highest value at 40° C. after 30 minutes reaction.

[13] = Acylase kinetics, hydrolysis of cephalosporin C (7-ACA determined at 415 nm with p-dimethylaminobenzaldehyde); assay type: biochemical; settings: substrate Cef C; for Km: 0.1 M phosphate buffer pH 8.0, 37° C.; for Vmax (U/mg): 0.1 M phosphate buffer pH 8.0, 37° C. (converted in units at 25° C.); for Inhibition after: substrate concentration after which inhibition is seen
Description: as §1, §3

[14] = Acylase kinetics, hydrolysis of glutaryl 7-ACA (7-ACA determined at 415 nm with p-dimethylaminobenzaldehyde); assay type: biochemical; settings: substrate Gl-7-ACA; for Km: 0.1 M phosphate buffer pH 8.0, 37° C.; for Vmax (U/mg): 0.1 M phosphate buffer pH 8.0, 37° C. (converted in units at 25° C.); for Inhibition after: substrate concentration after which inhibition is seen
Description: as §1, §3

[15] = substrate Gl-7-ACA, read-out: Ki
[16] = substrate concentration after which inhibition occurs

Molecule: CC(=O)OCC1=C(C(=O)O)N2C(=O)[C@@H](N)[C@H]2SC1 [7-ACA, 7-amino-cephalosporanic acid]
- Ki ([1]; substrate Gl-7-ACA): 4.7 mM
- Ki [2, 15]: 11.3 mM

Molecule: CC(=O)OCC1=C(C(=O)O)N2C(=O)[C@@H](NC(=O)CCC[C@@H](N)C(=O)O)[C@H]2SC1 [Cef C, cephalosporin C]
- Km [3]: 5.2 mM
- Vmax [3]: 0.27 U/mg
- Inhibition after [3]: 50 mM
- Km [4]: 6.9 mM
- Vmax [4]: 1.8 U/mg
- Inhibition after [4]: 25 mM
- Km [5]: 7.7 mM
- Vmax [5]: 0.21 U/mg
- Km [6]: 3.2 mM
- Vmax [6]: 0.16 U/mg
- Km [7]: 8.2 mM
- Vmax [7]: 0.23 U/mg
- Inhibition after [7]: 50 mM
- Km [8]: 7.7 mM
- Vmax [8]: 0.63 U/mg
- Inhibition after [8]: 25 mM
- Km [9]: 9.5 mM
- Vmax [9]: 0.75 U/mg
- Inhibition after [9]: 12.5 mM
- Km [10]: 8.3 mM
- Vmax [10]: 0.78 U/mg
- Inhibition after [10]: 50 mM
- Km [11]: 4.8 mM
- Vmax [11]: 0.2 U/mg
- Inhibition after [11]: 60 mM

Molecule: CC(=O)OCC1=C(C(=O)O)N2C(=O)[C@@H](NC(=O)CCCC(=O)O)[C@H]2SC1 [Gl-7-ACA, glutaryl-7-ACA]
- Km [3]: 2.8 mM
- Vmax [3]: 4.3 U/mg
- Inhibition after [3]: 50 mM
- Km [4]: 1.7 mM
- Vmax [4]: 16 U/mg
- Inhibition after [4]: 12.5 mM
- Km [5]: 0.85 mM
- Vmax [5]: 3.3 U/mg
- Inhibition after [5, 16]: 50 mM
- Km [6]: 1 mM
- Vmax [6]: 2 U/mg
- Inhibition after [6, 16]: 25 mM
- Km [7]: 1.6 mM
- Vmax [7]: 24.2 U/mg
- Inhibition after [7]: 12.5 mM
- Km [8]: 0.7 mM
- Vmax [8]: 2.0 U/mg
- Inhibition after [8]: 25 mM
- Km [9]: 1.7 mM
- Vmax [9]: 6.2 U/mg
- Inhibition after [9]: 12.5 mM
- Km [10]: 1.2 mM
- Vmax [10]: 12.5 U/mg
- Inhibition after [10]: 12.5 mM
- Km [11]: 2 mM
- Vmax [11]: 0.67 U/mg
- Inhibition after [11]: 50 mM

Molecule: O=C(O)CCCC(=O)O [Glutaric Acid]
- Ki ([1]; substrate Gl-7-ACA): 2.1 mM
- Ki [2, 15]: 6.1 mM

Molecule: N[C@H](CCCC(=O)O)C(=O)O [α-Aminoadipic]
- Ki ([1]; substrate Cef C): 85.2 mM
- Ki ([2]; substrate Cef C): no inhibition

B1: A215Y: HisVAC mutant, alanine 215 replaced with Tyr (protein)
chain: MTMAANTDRAVLQAALPPLSGSLPIPGLSASVRVRRDAWGIPHIKASGEADAYRALGFVHSQDRLFQMELTRRKALGRAAEWLGAEAAEADILVRRLGMEKVCRRDFEALGVEAKDMLRAYVAGVNAFLASGAPLPVEYGLLGAEPEPWEPWHSIAVMRRLGLLMGSVWFKLWRMLALPVVGAANALKLRYDDGGRDLLCIPPGAEADRLEADLYTLRPAVDALLKAMGGDASDAAGGGSNNWAVAPGRTATGRPILAGDPHRVFEIPGFYAQHHLACDRFDMIGLTVPGVPGFPHFAHNGKVAYCVTHAFMDIHDLYLEQFAGEGRTARFGNDFEPVAWSRDRIAVRGGADREFDIVETRHGPVIAGDPRDGAALTLRSVQFAETDLSFDCLTRMPGASTVAQLYDATRGWGLIDHNLVAGDVAGSIGHLVRARVPSRPRENGWLPVPGWSGEHEWRGWIPHEAMPRVIDPPGGIIVTANNRVVADDHPDYLCTDCHPPYRAERIMKRLVANPAFAVDDAAAIHADTLSPHVGLLRRRLEALGARDDSAAEGLRQMLVAWDGRMDAASEVASAYNAFRRALTRLVTDRSGLEQAISHPFAAVAPGVSPQGQVWWAVPTLLRDDDAGMLKGWSWDQALSEALSVASQNLTGRSWGEEHRPRFTHPLATQFPAWAGLLNPASRPIGGDGDTVLANGLVPSAGPQATYGALSRYVFDVGNWDNSRWVVFHGASGHPASAHYADQNAPWSDCAMVPMLYSWDRIAAEAVTSQELVPALEHHHHHH
- Thermal stability [12]: more stable

B2: H296F: HisVAC mutant, histidine 296 replaced with Phe (protein)
chain: B1 chain with Y215A, H296F
- Km [13]: 4.1 mM
- Vmax (U/mg) [13]: 0.05 U/mg
- Inhibition after [13]: 60 mM
- Km [14]: 1.9 mM
- Vmax (U/mg) [14]: 1.7 U/mg
- Inhibition after [14]: 50 mM

B3: H417Y: HisVAC mutant, histidine 417 replaced with Tyr (protein)
chain: B1 chain with Y215A, H417Y
- Km [13]: 12.3 mM
- Vmax (U/mg) [13]: 0.05 U/mg
- Inhibition after [13]: 50 mM
- Km [14]: 4.3 mM
- Vmax (U/mg) [14]: 14.8 U/mg

B4: D416Y: HisVAC mutant, aspartic acid 416 replaced with Tyr (protein)
chain: B1 chain with Y215A, D416Y
- Km [13]: 7.2 mM
- Vmax (U/mg) [13]: 0.66 U/mg
- Km [14]: 1.75 mM
- Vmax (U/mg) [14]: 4.9 U/mg
- Inhibition after [14]: 25 mM

B5: D416Y-H417Y: HisVAC double mutant, aspartic acid 416 and histidine 417 replaced with Tyr (protein)
chain: B1 chain with Y215A, D416Y, H417Y
- Km [13]: 13.1 mM
- Vmax (U/mg) [13]: 4.2 U/mg
- Inhibition after [13]: 50 mM
- Km [14]: 9 mM
- Vmax (U/mg) [14]: 1.2 U/mg
- Inhibition after [14]: 12.5 mM

B6: A215Y-H296S: HisVAC double mutant, alanine 215 replaced with Tyr and histidine 296 replaced with Ser (protein)
chain: B1 chain with H296S
- Km [13]: 10 mM
- Vmax (U/mg) [13]: 0.66 U/mg
- Inhibition after [13]: 40 mM
- Km [14]: 4 mM
- Vmax (U/mg) [14]: 2.2 U/mg
- Inhibition after [14]: 25 mM

Source: US20050158818A1, “Cephalosporin C acylases” (ANTIBIOTICOS S.p.A., priority 2004, published 2005)
